# Tested on: Staphylococcus aureus
# Test: microbe, parasite or virus in culture
# Conditions: ATCC 43300, 18 h, ASSAY_TEST Inhibition of Bacterial Growth, detection method Absorption (OD600), MEDIA CAMHB, plate type 384well, NBS, CORNING #3640
# Description: Antibacterial activity against Staphylococcus aureus MRSA ATCC 43300 (CO-ADD:GP_020); MIC in CAMBH media, using NBS plates, by OD(600)
row,SMILES,MIC [µg/mL]
1,COc1ccc(C(=N)Nc2cc(C(=O)Nc3nc(C(=O)NCCN4CCOCC4)c(CCc4ccccc4)s3)n(C)c2)cc1.O=C(O)C(F)(F)F.O=C(O)C(F)(F)F,8
2,Cn1cc(NC(=O)c2cc(NC(=O)c3ccc(/C=C/c4cnc5ccccc5c4)cc3)cn2C)cc1C(=O)NCCC(=N)N.O=C(O)C(F)(F)F.O=C(O)C(F)(F)F,> 32

# Results, then the compound that gave them:
row,MIC [µg/mL],SMILES
1,1,CC(C)n1cc(NC(=O)c2cc(NC(=O)c3ccc(/C=C/c4cnc5ccccc5c4)cc3)cn2C)cc1C(=O)NCCN1CCOCC1.O=C(O)C(F)(F)F.O=C(O)C(F)(F)F
2,2,Cn1cc(NC(=O)c2ccc(/C=C/c3cnc4ccccc4c3)cc2)cc1C(=O)Nc1cc(C(=O)NCCN2CCOCC2)n(CCCN=[N+]=[N-])c1.O=C(O)C(F)(F)F.O=C(O)C(F)(F)F
3,> 32,Cn1cc(NC(=O)c2cc(NC(=O)c3ccc(/C=C/c4ccc5nonc5c4)cc3)cn2C)cc1C(=O)NCCN1CCOCC1.O=C(O)C(F)(F)F
4,16,CC(C)CCc1sc(NC(=O)c2cc(NC(=O)c3cc(NC(=N)N)cn3C)cn2C)nc1C(=O)NCCCN(C)C.O=C(O)C(F)(F)F.O=C(O)C(F)(F)F

# Tested on: Cryptococcus neoformans
# Test: not given
# Conditions: not given
row,MIC [µg/mL],SMILES
1,16,CC(C)n1cc(NC(=O)c2cc(NC(=O)c3ccc(/C=C/c4cnc5ccccc5c4)cc3)cn2C)cc1C(=O)NCCN1CCOCC1.O=C(O)C(F)(F)F.O=C(O)C(F)(F)F
2,16,Cn1cc(NC(=O)c2ccc(/C=C/c3cnc4ccccc4c3)cc2)cc1C(=O)Nc1cc(C(=O)NCCN2CCOCC2)n(CCCN=[N+]=[N-])c1.O=C(O)C(F)(F)F.O=C(O)C(F)(F)F
3,8,Cn1cc(NC(=O)c2cc(NC(=O)c3ccc(/C=C/c4cnc5ccccc5c4)cc3)cn2C)cc1C(=O)NCCC(=N)N.O=C(O)C(F)(F)F.O=C(O)C(F)(F)F
4,> 32,Cn1cc(NC(=O)c2cc(NC(=O)c3ccc(/C=C/c4ccc5nonc5c4)cc3)cn2C)cc1C(=O)NCCN1CCOCC1.O=C(O)C(F)(F)F
5,4,CC(C)CCc1sc(NC(=O)c2cc(NC(=O)c3cc(NC(=N)N)cn3C)cn2C)nc1C(=O)NCCCN(C)C.O=C(O)C(F)(F)F.O=C(O)C(F)(F)F

# Tested on: Candida albicans
# Test: microbe, parasite or virus in culture
# Conditions: ATCC 90028, ASSAY_TEST Inhibition of Fungal Growth, detection method Absorption (OD530), plate type 384well, NBS, CORNING #3640
# Description: Antifungal activity against Candida albicans ATCC 90028 (CO-ADD:FG_001); MIC in YNB media using NBS plates, by OD630
row,SMILES,MIC [µg/mL]
1,COc1ccc(C(=N)Nc2cc(C(=O)Nc3nc(C(=O)NCCN4CCOCC4)c(CCc4ccccc4)s3)n(C)c2)cc1.O=C(O)C(F)(F)F.O=C(O)C(F)(F)F,> 32
2,Cn1cc(NC(=O)c2cc(NC(=O)c3ccc(/C=C/c4cnc5ccccc5c4)cc3)cn2C)cc1C(=O)NCCC(=N)N.O=C(O)C(F)(F)F.O=C(O)C(F)(F)F,32

# More lines, now with the values ahead:
row,MIC [µg/mL],SMILES
1,32,CC(C)n1cc(NC(=O)c2cc(NC(=O)c3ccc(/C=C/c4cnc5ccccc5c4)cc3)cn2C)cc1C(=O)NCCN1CCOCC1.O=C(O)C(F)(F)F.O=C(O)C(F)(F)F
2,> 32,Cn1cc(NC(=O)c2ccc(/C=C/c3cnc4ccccc4c3)cc2)cc1C(=O)Nc1cc(C(=O)NCCN2CCOCC2)n(CCCN=[N+]=[N-])c1.O=C(O)C(F)(F)F.O=C(O)C(F)(F)F
3,> 32,Cn1cc(NC(=O)c2cc(NC(=O)c3ccc(/C=C/c4ccc5nonc5c4)cc3)cn2C)cc1C(=O)NCCN1CCOCC1.O=C(O)C(F)(F)F
4,> 32,CC(C)CCc1sc(NC(=O)c2cc(NC(=O)c3cc(NC(=N)N)cn3C)cn2C)nc1C(=O)NCCCN(C)C.O=C(O)C(F)(F)F.O=C(O)C(F)(F)F

# Tested on: Klebsiella pneumoniae
# Test: microbe, parasite or virus in culture
# Conditions: ATCC 700603, 18 h, ASSAY_TEST Inhibition of Bacterial Growth, detection method Absorption (OD600), MEDIA CAMHB, plate type 384well, NBS, CORNING #3640
# Description: Antibacterial activity against Klebsiella pneumoniae MDR ATCC 70063 (CO-ADD:GN_003); MIC in CAMBH media using NBS plates, by OD(600)
row,SMILES,MIC [µg/mL]
1,COc1ccc(C(=N)Nc2cc(C(=O)Nc3nc(C(=O)NCCN4CCOCC4)c(CCc4ccccc4)s3)n(C)c2)cc1.O=C(O)C(F)(F)F.O=C(O)C(F)(F)F,> 32
2,Cn1cc(NC(=O)c2cc(NC(=O)c3ccc(/C=C/c4cnc5ccccc5c4)cc3)cn2C)cc1C(=O)NCCC(=N)N.O=C(O)C(F)(F)F.O=C(O)C(F)(F)F,> 32

# The next lines start with the values.
row,MIC [µg/mL],SMILES
1,> 32,CC(C)n1cc(NC(=O)c2cc(NC(=O)c3ccc(/C=C/c4cnc5ccccc5c4)cc3)cn2C)cc1C(=O)NCCN1CCOCC1.O=C(O)C(F)(F)F.O=C(O)C(F)(F)F
2,> 32,Cn1cc(NC(=O)c2ccc(/C=C/c3cnc4ccccc4c3)cc2)cc1C(=O)Nc1cc(C(=O)NCCN2CCOCC2)n(CCCN=[N+]=[N-])c1.O=C(O)C(F)(F)F.O=C(O)C(F)(F)F
3,> 32,Cn1cc(NC(=O)c2cc(NC(=O)c3ccc(/C=C/c4ccc5nonc5c4)cc3)cn2C)cc1C(=O)NCCN1CCOCC1.O=C(O)C(F)(F)F
4,> 32,CC(C)CCc1sc(NC(=O)c2cc(NC(=O)c3cc(NC(=N)N)cn3C)cn2C)nc1C(=O)NCCCN(C)C.O=C(O)C(F)(F)F.O=C(O)C(F)(F)F

# Tested on: Pseudomonas aeruginosa
# Test: microbe, parasite or virus in culture
# Conditions: ATCC 27853, 18 h, ASSAY_TEST Inhibition of Bacterial Growth, detection method Absorption (OD600), MEDIA CAMHB, plate type 384well, NBS, CORNING #3640
# Description: Antibacterial activity against Pseudomonas aeruginosa ATCC 27853 (CO-ADD:GN_042); MIC in CAMBH media using NBS plates, by OD(600)
row,SMILES,MIC [µg/mL]
1,COc1ccc(C(=N)Nc2cc(C(=O)Nc3nc(C(=O)NCCN4CCOCC4)c(CCc4ccccc4)s3)n(C)c2)cc1.O=C(O)C(F)(F)F.O=C(O)C(F)(F)F,> 32
2,Cn1cc(NC(=O)c2cc(NC(=O)c3ccc(/C=C/c4cnc5ccccc5c4)cc3)cn2C)cc1C(=O)NCCC(=N)N.O=C(O)C(F)(F)F.O=C(O)C(F)(F)F,> 32

# Next, values leading:
row,MIC [µg/mL],SMILES
1,> 32,CC(C)n1cc(NC(=O)c2cc(NC(=O)c3ccc(/C=C/c4cnc5ccccc5c4)cc3)cn2C)cc1C(=O)NCCN1CCOCC1.O=C(O)C(F)(F)F.O=C(O)C(F)(F)F
2,> 32,Cn1cc(NC(=O)c2ccc(/C=C/c3cnc4ccccc4c3)cc2)cc1C(=O)Nc1cc(C(=O)NCCN2CCOCC2)n(CCCN=[N+]=[N-])c1.O=C(O)C(F)(F)F.O=C(O)C(F)(F)F
3,> 32,Cn1cc(NC(=O)c2cc(NC(=O)c3ccc(/C=C/c4ccc5nonc5c4)cc3)cn2C)cc1C(=O)NCCN1CCOCC1.O=C(O)C(F)(F)F
4,> 32,CC(C)CCc1sc(NC(=O)c2cc(NC(=O)c3cc(NC(=N)N)cn3C)cn2C)nc1C(=O)NCCCN(C)C.O=C(O)C(F)(F)F.O=C(O)C(F)(F)F

# Tested on: HEK293
# Test: cells
# Format: functional, Homo sapiens, ATCC CRL1573
# Conditions: Homo sapiens, ATCC CRL1573, HEK293; ASSAY_TEST Inhibition of Cell Viability; detection method Resazurin; Fluorescence (ex560/em590); MEDIA DMEM with 10% FBS; plate type 384well; TC; CORNING #3712; time 18 hr; read-out: CC50
row,SMILES,CC50 [µg/mL]
1,CC(C)n1cc(NC(=O)c2cc(NC(=O)c3ccc(/C=C/c4cnc5ccccc5c4)cc3)cn2C)cc1C(=O)NCCN1CCOCC1.O=C(O)C(F)(F)F.O=C(O)C(F)(F)F,2.81
2,Cn1cc(NC(=O)c2ccc(/C=C/c3cnc4ccccc4c3)cc2)cc1C(=O)Nc1cc(C(=O)NCCN2CCOCC2)n(CCCN=[N+]=[N-])c1.O=C(O)C(F)(F)F.O=C(O)C(F)(F)F,4.48
3,COc1ccc(C(=N)Nc2cc(C(=O)Nc3nc(C(=O)NCCN4CCOCC4)c(CCc4ccccc4)s3)n(C)c2)cc1.O=C(O)C(F)(F)F.O=C(O)C(F)(F)F,8.88
4,Cn1cc(NC(=O)c2cc(NC(=O)c3ccc(/C=C/c4cnc5ccccc5c4)cc3)cn2C)cc1C(=O)NCCC(=N)N.O=C(O)C(F)(F)F.O=C(O)C(F)(F)F,6.55
5,CC(C)CCc1sc(NC(=O)c2cc(NC(=O)c3cc(NC(=N)N)cn3C)cn2C)nc1C(=O)NCCCN(C)C.O=C(O)C(F)(F)F.O=C(O)C(F)(F)F,19.9

# Tested on: Escherichia coli
# Test: microbe, parasite or virus in culture
# Conditions: ATCC 25922, 18 h, ASSAY_TEST Inhibition of Bacterial Growth, detection method Absorption (OD600), MEDIA CAMHB, plate type 384well, NBS, CORNING #3640
# Description: Antibacterial activity against Escherichia coli ATCC 25922 (CO-ADD:GN_001); MIC in CAMBH media using NBS plates, by OD(600)
row,SMILES,MIC [µg/mL]
1,COc1ccc(C(=N)Nc2cc(C(=O)Nc3nc(C(=O)NCCN4CCOCC4)c(CCc4ccccc4)s3)n(C)c2)cc1.O=C(O)C(F)(F)F.O=C(O)C(F)(F)F,> 32
2,Cn1cc(NC(=O)c2cc(NC(=O)c3ccc(/C=C/c4cnc5ccccc5c4)cc3)cn2C)cc1C(=O)NCCC(=N)N.O=C(O)C(F)(F)F.O=C(O)C(F)(F)F,> 32

# Other lines, results leading:
row,MIC [µg/mL],SMILES
1,> 32,CC(C)n1cc(NC(=O)c2cc(NC(=O)c3ccc(/C=C/c4cnc5ccccc5c4)cc3)cn2C)cc1C(=O)NCCN1CCOCC1.O=C(O)C(F)(F)F.O=C(O)C(F)(F)F
2,> 32,Cn1cc(NC(=O)c2ccc(/C=C/c3cnc4ccccc4c3)cc2)cc1C(=O)Nc1cc(C(=O)NCCN2CCOCC2)n(CCCN=[N+]=[N-])c1.O=C(O)C(F)(F)F.O=C(O)C(F)(F)F
3,> 32,Cn1cc(NC(=O)c2cc(NC(=O)c3ccc(/C=C/c4ccc5nonc5c4)cc3)cn2C)cc1C(=O)NCCN1CCOCC1.O=C(O)C(F)(F)F
4,> 32,CC(C)CCc1sc(NC(=O)c2cc(NC(=O)c3cc(NC(=N)N)cn3C)cn2C)nc1C(=O)NCCCN(C)C.O=C(O)C(F)(F)F.O=C(O)C(F)(F)F

# Tested on: Acinetobacter baumannii
# Test: microbe, parasite or virus in culture
# Conditions: ATCC 19606, 18 h, ASSAY_TEST Inhibition of Bacterial Growth, detection method Absorption (OD600), MEDIA CAMHB, plate type 384well, NBS, CORNING #3640
# Description: Antibacterial activity against Acinetobacter baumannii ATCC 19606 (CO-ADD:GN_034); MIC in CAMBH media using NBS plates, by OD600
row,SMILES,MIC [µg/mL]
1,COc1ccc(C(=N)Nc2cc(C(=O)Nc3nc(C(=O)NCCN4CCOCC4)c(CCc4ccccc4)s3)n(C)c2)cc1.O=C(O)C(F)(F)F.O=C(O)C(F)(F)F,> 32
2,Cn1cc(NC(=O)c2cc(NC(=O)c3ccc(/C=C/c4cnc5ccccc5c4)cc3)cn2C)cc1C(=O)NCCC(=N)N.O=C(O)C(F)(F)F.O=C(O)C(F)(F)F,> 32

# Now from value to compound:
row,MIC [µg/mL],SMILES
1,> 32,CC(C)n1cc(NC(=O)c2cc(NC(=O)c3ccc(/C=C/c4cnc5ccccc5c4)cc3)cn2C)cc1C(=O)NCCN1CCOCC1.O=C(O)C(F)(F)F.O=C(O)C(F)(F)F
2,> 32,Cn1cc(NC(=O)c2ccc(/C=C/c3cnc4ccccc4c3)cc2)cc1C(=O)Nc1cc(C(=O)NCCN2CCOCC2)n(CCCN=[N+]=[N-])c1.O=C(O)C(F)(F)F.O=C(O)C(F)(F)F
3,> 32,Cn1cc(NC(=O)c2cc(NC(=O)c3ccc(/C=C/c4ccc5nonc5c4)cc3)cn2C)cc1C(=O)NCCN1CCOCC1.O=C(O)C(F)(F)F
4,> 32,CC(C)CCc1sc(NC(=O)c2cc(NC(=O)c3cc(NC(=N)N)cn3C)cn2C)nc1C(=O)NCCCN(C)C.O=C(O)C(F)(F)F.O=C(O)C(F)(F)F

# Reference: ChEMBL document CHEMBL4513139, “CO-ADD screening of University of Strathclyde (UK) compounds”
